According to patent US20060211725A1, “Use” (Astellas Pharma Inc., priority 2002, published 2006):

Legend:
TGFβ gene expression = experiment: RT-PCR for TGFβ gene expression in kidney graft (Example 1); assay type: in vivo, rat; conditions: 10 and 20 mg/kg PO day 0-9; day 90 after grafting; vs untreated allograft control
Description: Inbred male Lewis rats (LEW) (RT1^I), weighing 250-300 g, were used as kidney transplantation recipients. Inbred male LEW and Fisher (F344) (RT1^IvI), weighing 250-350 g, were used as isograft and allograft donor rats, respectively. Kidney transplantation was performed using the modified technique of Fisher and Lee. [Fisher et al., Surgery, 58:904-914, 1965] Survival of kidney transplant was measured as time of recipient rat survival. Blood and 24 hr urine samples were collected once a week for plasma creatinine, proteinuria, and the measurement of antibody titer against donor glomeruli basement membrane protein (GBM). Kidney grafts were harvested on the 90th day posttranspalantation and subjected to histology and reverse transcriptase-polymerase chain reaction (RT-PCR) analysis. The compound (I), at doses of 10 mg/kg and 20 mg/kg were administered orally to recipient rats daily from day 0 to day 9 after transplantation. Control isograft and allograft recipients received no drug after transplantation. TGFβ has been considered to play a crucial role for causing chronic allograft rejection. Kidney graft tissues harvested from recipients on day 90th after transplantation were subjected to RT-PCR for TGFβ gene expression. Total RNA was extracted from transplanted kidney tissues by TRIZOL. […]

[1] = tested on: F344 kidney allograft in LEW recipient rats; experiment: Recipient kidney function under rescue treatment of chronic rejection (Example 3); assay type: in vivo, rat
Description: The rats and kidney transplantation methods described in Example 1 were used. […] The isograft and untreated allograft served as control groups. Blood and urine samples were collected once a week from recipients with kidney grafts described in Example 1 for measuring their plasma creatinine and proteinuria. Plasma creatinine was tested by Sigma Creatinine Kit and proteinuria by Bio-Rad Protein assay.

[2] = rescue 20 mg/kg PO for 3 weeks from onset of raised creatinine or proteinuria, after drug discontinued

C#CCC/C(O)=C(\C#N)C(=O)Nc1ccc(C(F)(F)F)cc1 [Compound (I), (2Z)-2-cyano-3-hydroxy-N-[4-(trifluoromethyl)phenyl]-2-hepten-6-ynamide]
TGFβ gene expression (mRNA) in kidney graft (TGFβ gene expression): inhibited TGFβ gene expression in a dose-dependent manner
plasma creatinine [1, 2]: tended to be at a normal level
proteinuria [1, 2]: tended to be at a normal level
recipient kidney function ([1]; rescue 20 mg/kg PO for 3 weeks, immediate effect): did not show an immediate improvement
